Measurements from PubChem BioAssay AID330 (DTP/NCI, 2004).
Several values for one entry are separate records, joined by “and”; a condition that tells them apart may be missing. Identical values can stand only once. Inconclusive results and toxic doses are left out. Square brackets hold non-standard residues; d marks the D form. Peptide text beside a SMILES is read from it. ξ: configuration not given here. ξNva = CCCC(N)C(=O)O

System: P388 leukemia ip, CD2F1 mice, survival T/C
Assay: NCI In Vivo Anticancer Drug Screen. Data for tumor model P388 Leukemia (intraperitoneal) in CD2F1 (CDF1) mice
Conditions: endpoint: median survival time, higher = longer survival
Procedure, shortened: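 Mice carrying the transplanted tumor received test compound or vehicle. Survival was recorded in each group, and the value is the treated-group measurement divided by that of the vehicle-treated control group.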

[1] = dose: 50.0 mg/kg/injection, schedule: Q01DX005 (ip), vehicle: Klucel (hydroxypropylcellulose) (HPC)
[2] = dose: 50.0 mg/kg/injection, schedule: Q01DX005 (ip), vehicle: saline with Tween-80
[3] = dose: 100.0 mg/kg/injection, schedule: Q01DX005 (ip), vehicle: saline with Tween-80
[4] = dose: 200.0 mg/kg/injection, schedule: Q01DX005 (ip), vehicle: saline with Tween-80
[5] = dose: 100.0 mg/kg/injection, schedule: Q01DX005 (ip), vehicle: Klucel (hydroxypropylcellulose) (HPC)
[6] = dose: 50.0 mg/kg/injection, schedule: Q01DX009 (ip), vehicle: saline with Tween-80

CCC(O)CC1OC2(CCC1C)CC1OC(=O)/C=C\C(C)(O)C(O)C(C)C(O)C(OC3CC(OC)C(O)C(C)O3)C(O)C(C)(O)CCC/C=C/C3CC(C)COC3(O)CC(O2)C1C (centres undefined)
T/C (dose: 1.0 mg/kg/injection, schedule: Q01DX005 (ip), vehicle: saline + alcohol): 100 % of control | T/C (dose: 2.0 mg/kg/injection, schedule: Q01DX005 (ip), vehicle: saline + alcohol): 104 % of control

O=C(O)c1cc2sccc2c(=O)[nH]1
T/C (dose: 100.0 mg/kg/injection, schedule: Q04DX003 (ip), vehicle: Klucel (hydroxypropylcellulose) (HPC)): 102 % of control | T/C (dose: 200.0 mg/kg/injection, schedule: Q04DX003 (ip), vehicle: Klucel (hydroxypropylcellulose) (HPC)): 113 % of control | T/C (dose: 400.0 mg/kg/injection, schedule: Q04DX003 (ip), vehicle: Klucel (hydroxypropylcellulose) (HPC)): 103 % of control

Cn1cc(NC(=O)c2cc(NC(=O)c3cc(NC=O)cn3C)cn2C)cc1C(=O)O
T/C (dose: 12.5 mg/kg/injection, schedule: Q01DX005 (ip), vehicle: Klucel (hydroxypropylcellulose) (HPC)): 100 % of control | T/C (dose: 25.0 mg/kg/injection, schedule: Q01DX005 (ip), vehicle: Klucel (hydroxypropylcellulose) (HPC)): 100 % of control | T/C [1]: 107 % of control

Cc1nc2ccc(Cl)cn2c1[N+](=O)[O-]
T/C (dose: 50.0 mg/kg/injection, schedule: Q01DX009 (ip), vehicle: Klucel (hydroxypropylcellulose) (HPC)): 96 % of control | T/C (dose: 100.0 mg/kg/injection, schedule: Q01DX009 (ip), vehicle: Klucel (hydroxypropylcellulose) (HPC)): 95 % of control | T/C (dose: 200.0 mg/kg/injection, schedule: Q01DX009 (ip), vehicle: Klucel (hydroxypropylcellulose) (HPC)): 96 % of control

CCN(CC)CCC(=O)c1cccc2ccccc12
T/C (dose: 25.0 mg/kg/injection, schedule: Q01DX005 (ip), vehicle: saline with Tween-80): 100 % of control | T/C [2]: 106 % of control | T/C [3]: 102 % of control

Cc1ccc2c(c1)Sc1c(ccc3ccccc13)N2
T/C [2]: 103 % of control | T/C [3]: 102 % of control | T/C [4]: 97 % of control

COc1ccc2c(c1OC)CN1CCc3cc4c(cc3C1C2)OCO4 (centres undefined)
T/C [1]: 105 % of control and 91 % of control | T/C [5]: 100 % of control and 94 % of control | T/C (dose: 200.0 mg/kg/injection, schedule: Q01DX005 (ip), vehicle: Klucel (hydroxypropylcellulose) (HPC)): 96 % of control and 94 % of control

COc1cc(Br)cc(/C=C/[N+](=O)[O-])c1OC
T/C [6]: 115 % of control

CC1CC(C#N)=C(NC#N)NC1=O (centres undefined)
T/C (dose: 7.5 mg/kg/injection, schedule: Q01DX005 (ip), vehicle: saline with Tween-80): 108 % of control | T/C (dose: 7.5 mg/kg/injection, schedule: Q01DX005 (ip), vehicle: saline): 101 % of control | T/C (dose: 15.0 mg/kg/injection, schedule: Q01DX005 (ip), vehicle: saline with Tween-80): 111 % of control | T/C (dose: 15.0 mg/kg/injection, schedule: Q01DX005 (ip), vehicle: saline): 106 % of control

NC(=O)Oc1cccc(OC(N)=O)c1
T/C (dose: 25.0 mg/kg/injection, schedule: Q01DX009 (ip), vehicle: other): 103 % of control | T/C (dose: 50.0 mg/kg/injection, schedule: Q01DX009 (ip), vehicle: other): 111 % of control | T/C (dose: 50.0 mg/kg/injection, schedule: Q04DX003 (ip), vehicle: other): 95 % of control | T/C (dose: 100.0 mg/kg/injection, schedule: Q01DX009 (ip), vehicle: other): 113 % of control | T/C (dose: 200.0 mg/kg/injection, schedule: Q01DX009 (ip), vehicle: other): 113 % of control | T/C (dose: 200.0 mg/kg/injection, schedule: Q04DX003 (ip), vehicle: other): 98 % of control

CCOc1c(N=Nc2ccccc2C)c(C)nn1C(=S)S
T/C (dose: 60.0 mg/kg/injection, schedule: Q01DX005 (ip), vehicle: Klucel (hydroxypropylcellulose) (HPC)): 97 % of control | T/C (dose: 120.0 mg/kg/injection, schedule: Q01DX005 (ip), vehicle: Klucel (hydroxypropylcellulose) (HPC)): 95 % of control | T/C (dose: 240.0 mg/kg/injection, schedule: Q01DX005 (ip), vehicle: Klucel (hydroxypropylcellulose) (HPC)): 97 % of control

CCCC(NC(=O)CNC(=O)CN)C(=O)O (stereo not drawn) (H-Gly-Gly-[ξNva]-OH)
T/C (dose: 60.0 mg/kg/injection, schedule: Q01DX005 (ip), vehicle: saline): 98 % of control | T/C (dose: 120.0 mg/kg/injection, schedule: Q01DX005 (ip), vehicle: saline): 106 % of control | T/C (dose: 240.0 mg/kg/injection, schedule: Q01DX005 (ip), vehicle: saline): 106 % of control

O=S1(=O)c2cccc(c2)NC(=S)/C([n+]2ccccc2)=C(/[O-])c2ccc(cc2)CC2CCCCN21 (centres undefined)
T/C [1]: 94 % of control | T/C [5]: 87 % of control

O=C(Nc1cccc([N+](=O)[O-])c1)C1C(=O)N(c2cccc([N+](=O)[O-])c2)C(=O)/C1=N/O (centres undefined)
T/C [2]: 99 % of control | T/C [3]: 95 % of control | T/C [4]: 100 % of control

CC(C)(C)OC(=O)NC(CCC(N)=O)C(=O)ON1C(=O)CCC1=O (centres undefined)
T/C [2]: 98 % of control | T/C [3]: 99 % of control | T/C [4]: 104 % of control

CC(C)C(=O)CCCN1C(=O)c2ccccc2C1=O
T/C (dose: 12.5 mg/kg/injection, schedule: Q01DX009 (ip), vehicle: distilled water + Tween-80): 94 % of control | T/C (dose: 25.0 mg/kg/injection, schedule: Q01DX009 (ip), vehicle: distilled water + Tween-80): 86 % of control | T/C (dose: 50.0 mg/kg/injection, schedule: Q01DX009 (ip), vehicle: distilled water + Tween-80): 86 % of control | T/C (dose: 100.0 mg/kg/injection, schedule: Q01DX009 (ip), vehicle: distilled water + Tween-80): 100 % of control

CCN(CC)[P+](c1ccccc1O)(N(CC)CC)N(CC)CC
T/C (dose: 1.56 mg/kg/injection, schedule: Q01DX009 (ip), vehicle: saline): 100 % of control | T/C (dose: 3.12 mg/kg/injection, schedule: Q01DX009 (ip), vehicle: saline): 101 % of control

CCC1=C[C@H]2CN(CCc3c([nH]c4ccccc34)[C@@](C(=O)OC)(c3cc4c(cc3OC)N(C)[C@H]3[C@@](O)(C(=O)NN)[C@H](O)[C@]5(CC)C=CCN6CC[C@]43[C@@H]65)C2)C1
T/C (dose: 0.5 mg/kg/injection, schedule: Q01DX001 (ip), vehicle: water): 174 % of control | T/C (dose: 1.0 mg/kg/injection, schedule: Q01DX001 (ip), vehicle: water): 164 % of control and 175 % of control | T/C (dose: 2.0 mg/kg/injection, schedule: Q01DX001 (ip), vehicle: water): 183 % of control and 193 % of control

FC(F)(F)COP(OCC(F)(F)F)c1ccccc1
T/C [2]: 106 % of control | T/C [3]: 111 % of control | T/C [4]: 111 % of control

CCN(CC)c1ccc(/C=C2/C=Cc3ccccc32)cc1
T/C (dose: 100.0 mg/kg/injection, schedule: Q01DX009 (ip), vehicle: saline with Tween-80): 105 % of control | T/C (dose: 200.0 mg/kg/injection, schedule: Q01DX009 (ip), vehicle: saline with Tween-80): 100 % of control | T/C (dose: 400.0 mg/kg/injection, schedule: Q01DX009 (ip), vehicle: saline with Tween-80): 95 % of control

Cc1ccccc1OCC1COCN(C(C)(C)C)CO1 (centres undefined)
T/C (dose: 60.0 mg/kg/injection, schedule: Q01DX005 (ip), vehicle: saline with Tween-80): 100 % of control | T/C (dose: 120.0 mg/kg/injection, schedule: Q01DX005 (ip), vehicle: saline with Tween-80): 107 % of control | T/C (dose: 240.0 mg/kg/injection, schedule: Q01DX005 (ip), vehicle: saline with Tween-80): 102 % of control

COc1ccc(CC2c3cc4c(cc3CCN2C)OCO4)c(/C=C\c2ccccc2)c1OC (centres undefined)
T/C (dose: 6.25 mg/kg/injection, schedule: Q01DX001 (ip), vehicle: saline + alcohol): 92 % of control | T/C (dose: 12.5 mg/kg/injection, schedule: Q01DX001 (ip), vehicle: saline + alcohol): 93 % of control | T/C (dose: 25.0 mg/kg/injection, schedule: Q01DX001 (ip), vehicle: saline + alcohol): 90 % of control | T/C (dose: 200.0 mg/kg/injection, schedule: Q01DX001 (ip), vehicle: saline + alcohol): 87 % of control

CC(=O)c1cc(I)c(O)c2ncccc12
T/C (dose: 6.25 mg/kg/injection, schedule: Q01DX009 (ip), vehicle: saline with Tween-80): 97 % of control | T/C (dose: 12.5 mg/kg/injection, schedule: Q01DX009 (ip), vehicle: saline with Tween-80): 94 % of control | T/C (dose: 25.0 mg/kg/injection, schedule: Q01DX009 (ip), vehicle: saline with Tween-80): 98 % of control

COc1ccc(CC2c3cc(OC)c(OC)cc3CCN2C)cc1OC (centres undefined)
T/C (dose: 1.5 mg/kg/injection, schedule: Q01DX005 (ip), vehicle: saline with Tween-80): 97 % of control | T/C (dose: 3.0 mg/kg/injection, schedule: Q01DX005 (ip), vehicle: saline with Tween-80): 98 % of control | T/C (dose: 6.0 mg/kg/injection, schedule: Q01DX005 (ip), vehicle: saline with Tween-80): 99 % of control | T/C [6]: 91 % of control

COc1ccc(CNCCCSC)cc1
T/C (dose: 50.0 mg/kg/injection, schedule: Q01DX005 (ip), vehicle: saline): 105 % of control | T/C (dose: 100.0 mg/kg/injection, schedule: Q01DX005 (ip), vehicle: saline): 110 % of control

Cc1cc(-c2ccccc2)c(C)c(-c2ccccc2)c1-c1ccccc1
T/C (dose: 100.0 mg/kg/injection, schedule: Q04DX002 (ip), vehicle: saline with Tween-80): 99 % of control | T/C (dose: 200.0 mg/kg/injection, schedule: Q04DX002 (ip), vehicle: saline with Tween-80): 101 % of control | T/C (dose: 400.0 mg/kg/injection, schedule: Q04DX002 (ip), vehicle: saline with Tween-80): 96 % of control
